The source of these data is US20230106943A1, “ENGINEERED ANTIMICROBIAL PEPTIDES AND USAGE THEREOF” (Peptilogics, Inc., priority 2021, published 2023).

No end group written: not given here.

The nature of the series: Stability of solid SEQ ID NO: 1 stored at −20° C. (HPLC area percent). The format is physicochemical. As for the experimental part:
A solid form of SEQ ID NO: 1 from Batch 2K18005 was dissolved and assayed. FIG. 1 depict the chromatograph of SEQ ID NO:1 at 1.0 mg/mL. The retention time at 14.38 and relative retention time at 1.00 (RTT) corresponded to SEQ ID NO: 1. The area percent of the SEQ ID NO: 1 was 99.09. […] The area percent of the impurity was 0.91. FIG. 1 depicts SEQ ID NO: 1 at time (t)=0 for a baseline prior to storage. SEQ ID NO: 1 is stable after 3 years of storage at −20° C. as a dry powder in a glass vial. FIG. 2 depicts the HPLC chromatograph after 3 years of storage SEQ ID NO: 1 in solid form at −20° C. (Batch 2K18005). The retention time at 18.03 and relative retention time at 1.00 (RTT) corresponded to SEQ ID NO: 1. The area percent of the SEQ ID NO: 1 was 97.87.

[1] abbreviates: solid form, Batch 2K18005, t=0 baseline prior to storage.
Setting [2] is: solid form, after 3 years at −20° C.

For the substance “RRWVRRVRRVWRRVVRVVRRWVRR-NH2 [SEQ ID NO: 1]”, the stability on storage entry (dry powder in a glass vial, 3 years at −20° C.) is given as “stable”. The “area percent of the SEQ ID NO: 1 (HPLC)” value (solid form, Batch 2K18005, after 3 years of storage at −20° C.) was found to be 97.87 area percent. Under setting [1], the “area percent of the SEQ ID NO: 1 (HPLC)” value was determined as 99.09 area percent and the “area percent of the impurity, RTT 1.03” value is 0.91 area percent. For the same substance, under setting [2], the “area percentage of impurity, RTT 0.99” value is 0.09 area percent; the “area percentage of impurity, RTT 1.02” value is 1.28 area percent; the “area percentage of impurity, RTT 1.03” value was 0.41 area percent; the “area percentage of impurity, RTT 1.04” value stood at 0.19 area percent. In addition, under setting [2], the “area percentage of impurity, RTT 1.05” value is 0.15 area percent.
